According to patent US4668725A, “Stabilizing compounds for organic polymers, and stabilized polymer compounds which contain them” (Enichem Sintesi S.p.A., priority 1984, dated 1987):

What was measured:
[1] = Phenoxy radical formation and stability by ESR after reaction of stabilising compound with benzoyl peroxide in toluene; conditions: 2% by weight each of compound and benzoyl peroxide in toluene; 70° C. for 24 hours, then at rest to ambient temperature
Description: In the case of stabilising compounds of phenolic nature, phenolic radicals characterised by long life have to form within the polymer in order for the antioxidant activity of the stabilising compound to take effect, and therefore the formation and stability of radicals of this type, originating from the reaction between the stabilising compounds of the present invention and benzoyl peroxide in toluene, are taken as parameters for evaluating the stabilising action of the stabilising compounds concerned.
In particular, in this test, toluene solutions containing 4% by weight of the stabilising compound are prepared simultaneously with solutions containing the same weight percentage of benzoyl peroxide. A small quantity of the stabilising compound solution is then mixed with an equal quantity of the benzoyl peroxide solution.
After mixing, a solution containing 2% by weight of each component is obtained. 1 ml of the resultant solution is then transferred to an ESR (electronic spin resonance) sample tube where it is degassed and sealed under vacuum. The system obtained in this manner is heated to 70° C. for 24 hours. The radical stability is checked by ESR spectra both during the 24 hour heating period and during the subsequent time, in which the system is left at rest to cool to ambient temperature.

[2] = Accelerated oven ageing of polypropylene film: growth of carbonyl index (IR band at 1720 cm^-1); conditions: air circulation oven at 140° C.; 0.1% of the weight of the polymer; 100 μm film; extrapolated to zero carbonyl index; absent stabiliser: 2
Experimental: (§1) Accelerated thermal ageing tests are also carried out on polypropylene stabilised by the stabilising compounds of the present invention, and in particular the following tests are carried out:
measurements of the growth of the carbonyl index on polypropylene film containing the stabilising compound and subjected to thermal treatment; and
In the first case, the carbonyl index is evaluated from the IR spectrum for the film, by measuring the band intensity at 1720 cm^-1, and is defined by the relationship: [formula] where Io is the initial band intensity, It is the intensity at time t and S is the film thickness in μm.
The polypropylene film containing the stabilising compound is prepared by dissolving the stabilising compound in benzene and mixing the resultant solution with powdered polypropylene containing no other additive.
The stabilising compound is added in a quantity of 0.1% of the weight of the polymer. The benzene is then removed by evaporation under reduced pressure, and the residual powder is pressed into a film of 100 μm thickness.
The pressing is carried out at a temperature of 160° C. under a pressure of 900 kg/cm^2 for a time of 5 minutes. The film is extracted from the press and is rapidly cooled under running water.
The film prepared in this manner is then subjected to accelerated ageing in an air circulation oven at 140° C.
(§2) The polypropylene used for the tests is the commercial product Moplen® FL 20F of the Montedison Company.
Time of oven treatment (at 140° C.) required for inducing the formation of the IR band at 1720 cm^-1 in polypropylene films without stabilising compound and with stabilising compound.

[3] = Melt flow index variation of stabilised polypropylene on repeated extrusion; parameters: unit not given here; conditions: ASTM-D1238, 90° C., 2.16 kg/cm^2
Experimental: as §1
measurements of the variation in the melt flow index of the polypropylene containing the stabilising compound and subjected to repeated extrusion.
Finally, the melt flow index variation measurements are carried out on polypropylene powder mixed with the stabilising compound by stirring for 30 minutes in a planetary mixer. The repeated extrusions are carried out in an extruder of 19 mm diameter, of length 25 times its diameter, and provided with a 2 mm nozzle and a screw, the compression ratio being 1:4, the speed being 50 r.p.m. The temperature profile along the extruder is 175° C.; 230° C.; 270° C.; 270° C.
After each extrusion, the filament obtained is cut into granules to be subjected to a new extrusion passage.
At the end of each passage, some of the granules are used for measuring the melt flow index in accordance with ASTM-D1238, operating at 90° C. and at a pressure of 2.16 kg/cm^2.
The melt flow index values after 1, 3, 5 and 7 passages through the extruder are shown for polypropylene stabilised by certain stabilisers according to the present invention in Table 3.
as §2
Melt flow index of polypropylene containing the stabilising compound as a function of the number of successive passages through the extruder.

Structure (SMILES)	t 1/2: time required to reduce to one half the ESR signal intensity for the phenoxy radicals [1]	t 1/4: time required to reduce to one quarter the ESR signal intensity for the phenoxy radicals [1]	Induction time for the formation of the IR band at 1720 cm^-1 (carbonyl band) in polypropylene films [2]	Melt flow index of polypropylene containing the stabilising compound ([3]; 1 extrusion)	Melt flow index of polypropylene containing the stabilising compound ([3]; 3 extrusions)	Melt flow index of polypropylene containing the stabilising compound ([3]; 5 extrusions)	Melt flow index of polypropylene containing the stabilising compound ([3]; 7 extrusions)
CC(C)(C)c1cc(CCC(=O)Oc2cccc(OC(=O)CCc3cc(C(C)(C)C)c(O)c(C(C)(C)C)c3)c2OC(=O)CCc2cc(C(C)(C)C)c(O)c(C(C)(C)C)c2)cc(C(C)(C)C)c1O [Example 1, benzene-1,2,3-tri[3-(4'-hydroxy-3',5'-di-tert-butylphenyl)propionate]]	20 h	100 h	260 h	–	–	–	–
CC(C)(C)c1cc(CCC(=O)Oc2cc(C(=O)O)cc(OC(=O)CCc3cc(C(C)(C)C)c(O)c(C(C)(C)C)c3)c2OC(=O)CCc2cc(C(C)(C)C)c(O)c(C(C)(C)C)c2)cc(C(C)(C)C)c1O [Example 2, benzene-3,4,5-tri[3-(4'-hydroxy-3',5'-di-tert-butylphenyl)propionate]-1-carboxylic acid]	–	–	160 h	–	–	–	–
CC(C)(C)c1cc(CCC(=O)OCCOc2ccc(OCCOC(=O)CCc3cc(C(C)(C)C)c(O)c(C(C)(C)C)c3)cc2)cc(C(C)(C)C)c1O [Example 3, 1,4-phenylene-bis-(oxyethylidene)-bis-[3-(4'-hydroxy-3',5'-di-tert-butylphenyl)propionate]]	24 h	90 h	575 h	7.34	9.91	12.59	14.61
CC(C)(C)c1cc(CCC(=O)Nc2ccc(OC(=O)CCc3cc(C(C)(C)C)c(O)c(C(C)(C)C)c3)cc2)cc(C(C)(C)C)c1O [Example 4, phenylene-1-[3-(4'-hydroxy-3',5'-di-tert-butylphenyl)propionate]-4-[3-(4'-hydroxy-3',5'-di-tert-butylphenyl)propionamide]]	15 h	150 h	–	7.42	10.36	13.09	15.78
